Data: patent US20100204460A1, “NATURAL BRASSINOSTEROIDS FOR USE FOR TREATING HYPERPROLIFERATION, TREATING PROLIFERATIVE DISEASES AND REDUCING ADVERSE EFFECTS OF STEROID DYSFUNCTION IN MAMMALS, PHARMACEUTICAL COMPOSITION AND ITS USE” (priority 2007, published 2010)

What was measured:
Assay type in all cases: cell-based
[1] = test system: LNCaP (androgen-sensitive) prostate cancer cell line; experiment: MTT cytotoxicity test, LNCaP; details: 24 h, mean ± SD, read-out: IC50 determined by MTT cytotoxicity test
Procedure: (§1) 3-(4,5-Dimethylthiazol-2-yl)-2,5-diphenyltetrazolium bromide (MTT) was from Serva Electrophoresis (Heidelberg, Germany). Monoclonal mouse anti-bromodeoxyuridine (BrdU) intibody was obtained from DakoCytomation (Glostrup, Denmark). Calcein AM was obtained from PAA Laboratories GmbH (Pasching, Austria). […] All other cells were cultured in DMEM medium (Sigma, MO, USA). All used media were supplemented with 10% heat-inactivated fetal bovine serum, 2 mmol/L L-glutamine, 1% penicillin/streptomycin. The cell lines were maintained under standard cell culture conditions at 37° C. and 5% CO2 in a humid environment. Cells were subcultured twice or three times a week using the standard trypsinization procedure (Sigma, USA).
(§2) Cell viability in this case was assessed by 3-(4,5-dimethylthiozol-2-yl)-2,5-diphenyltetrazolium bromide (MTT) to determine IC50 concentrations of studied agents as described previously. […] The cells (70% to 80% confluent) were treated with brassinosteroids for 6, 12 and 24 h in cell culture medium. Cells that were used as controls were incubated with the maximum used amount of steroid diluent DMSO only. […] The absorbance was read using an ELISA reader Labsystem Multiscan RC at 570 nm. The viability of treated cells was related to the viability of control cells that represented 100% viability. […]

[2] = test system: DU-145 (androgen-insensitive) prostate cancer cell line; experiment: MTT cytotoxicity test, DU-145; details: 24 h, mean ± SD, read-out: IC50 determined by MTT cytotoxicity test
Procedure: as §1, §2

[3] = test system: MCF-7 cells; experiment: TUNEL detection of apoptosis, MCF-7; details: IC50 concentration
Procedure: TdT-Mediated dUTP nick end labeling (TUNEL) detection of apoptosis index. For detection of apoptotic cells, the TUNEL assay was used. […] After period of treatment, the cells were washed with PBS and fixed on the slides with cold acetone-methanol (1:1, v/v) for 10 min. Apoptosis-induced nuclear DNA fragmentation was detected by terminal deoxynucleotidyl transferase-mediated UTP nick end labeling (TUNEL) technique according to the producer protocol (In Situ Cell Death Detection Kit; Roche Diagnostics, Mannheim, Germany). The cells were then washed three times in PBS and stained with 4′-6-diamidino-2-phenylindole (DAPI; 50 μg/ml; Sigma, St. Louis, Mo., USA) for 10 min in the dark. The coverslips with cells were washed in deionized water and mounted on glass slides, using the hydrophilic medium Mowiol (Calbiochem, Fremont, Calif., USA) in glycerol-PBS (1:3, v/v) for fluorescence. Cells were visualized using fluorescence microscopy and compared with control cells. TUNEL staining achieved to confirm apoptosis in all cell lines.

[4] = test system: DU-145 cells; experiment: Western blot of cell cycle and apoptosis related proteins, DU-145; details: for MDM-2 level (Western blot) / anti-apoptotic protein Bcl-2 expression (Western blot): IC50 for 6, 12, 24 h vs untreated control; for p53 expression (Western blot): vs untreated control
Procedure: The cells were seeded in a density 1.6×10^4 cells/cm^2 (LNCaP), 1.4×10^4 cells/cm^2 (DU-145, MDA-MB-468 and MCF-7) using culture medium in 100-mm culture Petri dishes. After reaching of 70-80% confluence, the cells were treated with tested compounds 9 in concentration IC50 that were evaluated by MTT analysis described above. DMSO was used as a vehicle for controls. After 6, 12 and 24 h treatment, the cells were washed with cold PBS and scraped in ice-cold protein extract ion buffer (50 mM HEPES, pH 7.5; 150 mM NaCl; 1 mM EDTA; 2.5 mM EGTA; 10% glycerol; 0.1% Tween 20) with protease and phosphatase inhibitors (25 μL/mL phenylmethanesulphonyl fluoride; 2.5 μL/mL leupeptin; 0.1 mM Na3VO4; 2.5 μL/mL aprotinin; 10 mM β-glycerol-phosphate; 1 mM dithiothreitol). The lysates were collected into microfuge tube and incubated on ice for 1 h. Cells were incubated 60 min at 4° C. under time by time shaking in protein extraction buffer. After centrifugation at 45 000×g for 30 min at 4° C., supernatant was collected, aliquoted, and stored at −80° C. The protein content in the lysates was measured by a Bredford assay (Bio-Rad Laboratories, Hercules, Calif., USA) according to the manufacture's protocol.
For Western blot analysis, equal aliquots of proteins (15-30 μg/well) were loaded on 10% or 12% SDS-PAGE gels and transferred onto nitrocellulose membranes (Amersham Biosciences, Vienna, Austria) by semi-dry electrophoretic transfer. Coloured marker (Rainbow™, Amersham Biosciences, Vienna, Austria) was used as a protein molecular weight standard. The non-specific binding sites were blocked by incubating the blot with 5% (w/v) non-fat dry milk in PBS for 2 h. The blot was incubated overnight in 4° C. with appropriate primary antibody that detects the protein epitope of interest and finally washed in PBS with 0.1% Tween 20 for 1 h. The blot was incubated with the diluted secondary goat anti-mouse IgG-horseradish peroxidase conjugated antibody (dilution 1:6000, Santa Cruz Biotechnology, Santa Cruz, Calif., USA) or goat anti-rabbit IgG-horseradish peroxidase conjugated antibody (dilution 1:2000, DakoCytomation, Glostrup, Denmark) for 45 min in 4° C. The membrane was washed in PBS with 0.1% Tween 20 for 1 h. The proteins were detected using a chemiluminescence detection system (Amersham Biosciences, Vienna, Austria) according to the protocol provided by the manufacturer. Equality of loaded proteins was confirmed by Ponceau S membrane staining (Sigma, St. Louis, Mo., USA) and by detection of anti-tubulin-α or anti-mcm-7 antibodies. The experiments were repeated three times. The protein expressions in treated cells were compared to untreated controls.
Western blot analysis was used to detect changes in apoptosis related protein expression in breast and prostate cancer cell lines. […] This decreased expression of Bid can indicate a cleavage of the protein after treatment by BRs. In DU-145 cell line, expression of pro-apoptotic proteins Bax and Bid was unchanged. […] On the other hand, caspase cleavage was not found in DU-145 cells. Poly-(ADP-ribose) polymerase (PARP) positive expression in controls of prostate cancer cell lines was observed but brassinosteroids had no effect on its expression nor on its degradation within the period 6/12/24 h (FIG. 6B).

Compound | IC50 [1] [µM] | IC50 [2] [µM] | percentage of TUNEL positive cells ([3]; 6 h, control 0.0 ± 0.0) [%] | percentage of TUNEL positive cells ([3]; 12 h, control 0.0 ± 0.0) [%] | percentage of TUNEL positive cells ([3]; 24 h, control 0.3 ± 0.6) [%] | MDM-2 level (Western blot) [4] | anti-apoptotic protein Bcl-2 expression (Western blot) [4] | p53 expression (Western blot) [4]
CC[C@@H](C(C)C)[C@@H](O)[C@H](O)[C@@H](C)[C@H]1CC[C@H]2[C@@H]3CC(=O)[C@H]4C[C@H](O)[C@H](O)C[C@]4(C)[C@H]3CC[C@]12C [Brassinosteroid 9, 28-Homocastasterone] | 45 ± 2.3 | 45 ± 2.8 | 10.6 ± 1.5 | 13.7 ± 3.8 | 13.7 ± 2.6 | decreased level of MDM-2 in all time points | decreased after treatment with 9 (6, 12 and 24 h) | no p53 expression changes
CC(C)[C@@H](C)[C@@H](O)[C@H](O)[C@@H](C)[C@H]1CC[C@H]2[C@@H]3COC(=O)[C@H]4C[C@H](O)[C@H](O)C[C@]4(C)[C@H]3CC[C@]12C [Brassinosteroid 6, 24-Epibrassinolide] | 60 ± 3.1 | 65 ± 0.9 | 2.7 ± 1.2 | 8.3 ± 3.1 | 11.7 ± 3.8 | decreased level of MDM-2 in all time points | decreased after treatment with 9 (6, 12 and 24 h) or 6 (6 and 24 h) | no p53 expression changes
